What was measured:
[1] = system: HeLa; assay: Proliferation assay (crystal violet), HeLa; format: cell-based; details: Homo sapiens, HeLa, 96 h, HeLa cells; 4 days incubation; crystal violet staining; read-out: IC50 inhibition of proliferation, HeLa
Method in brief: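 Four-day compound exposure (0.001-10 μM, 0.5% DMSO final) began 24 h after seeding 1000-5000 cells/well in medium with 10% fetal calf serum. Cell number read by crystal violet absorbance at 595 nm, scaled between day-zero plate and untreated control; 4-parameter fit gave IC50.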

[2] = molecular target: T1, catalytic domain of human Bub1 (amino acids 704-1085) (Homo sapiens, UniProt O43683); assay: Bub1 kinase assay (TR-FRET); format: biochemical; details: 10 μM ATP, avg, read-out: Bub1 avg (IC50 [mol/l])
T1 construct: catalytic domain of human Bub1 (amino acids 704-1085); His6 (N); made in house; host or cells: insect cells (Hi5)
T1 sequence (O43683 704-1085): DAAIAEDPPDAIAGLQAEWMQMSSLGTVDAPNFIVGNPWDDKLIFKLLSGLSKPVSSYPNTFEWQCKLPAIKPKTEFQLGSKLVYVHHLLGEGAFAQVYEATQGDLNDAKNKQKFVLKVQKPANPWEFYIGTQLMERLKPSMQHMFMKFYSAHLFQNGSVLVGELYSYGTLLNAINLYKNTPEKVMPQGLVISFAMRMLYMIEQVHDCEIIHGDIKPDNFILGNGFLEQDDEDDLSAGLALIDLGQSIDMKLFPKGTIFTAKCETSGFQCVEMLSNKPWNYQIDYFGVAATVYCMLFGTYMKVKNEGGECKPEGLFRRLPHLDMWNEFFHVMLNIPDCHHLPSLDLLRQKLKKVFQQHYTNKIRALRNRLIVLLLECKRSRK
Method in brief: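 Readout is the 665/620 nm TR-FRET ratio from anti-phosphoserine antibody, Eu-labelled anti-mouse IgG and streptavidin-XL665, scaled between no-enzyme and uninhibited controls. Reaction: 1 μM biotinylated peptide, 10 μM ATP, 60 min, 22 °C, after 15 min compound preincubation with His6-Bub1 (704-1085, insect-expressed, ~200 ng/ml).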

Row | SMILES | IC50 [1] [nM] | IC50 [2] [nM]
1 | CCN1CCC(COc2ccc(NC(=O)c3c(C)nsc3Nc3cnc(C(F)(F)F)cn3)cn2)C(F)(F)C1 (stereo not drawn) [Example 393, N-{6-[(1-ethyl-3,3-difluoropiperidin-4-yl)methoxy]pyridin-3-yl}-3-methyl-5-{[5-(trifluoromethyl)pyrazin-2-yl]amino}-1,2-thiazole-4-carboxamide] | 430 | > 20000
2 | Cc1nsc(Nc2cnc(C(F)(F)F)cn2)c1C(=O)Nc1ccc(F)c(OC[C@@H]2CCCN(CCC(F)(F)F)C2)c1 [Example 395, N-(4-fluoro-3-{[(3R)-1-(3,3,3-trifluoropropyl)piperidin-3-yl]methoxy}phenyl)-3-methyl-5-{[5-(trifluoromethyl)pyrazin-2-yl]amino}-1,2-thiazole-4-carboxamide] | 480 | > 20000
3 | CCCCN1CCC(COc2ccc(NC(=O)c3c(C)nsc3Nc3cnc(C(F)(F)F)cn3)cn2)C(F)(F)C1 (stereo not drawn) [Example 396, N-{6-[(1-butyl-3,3-difluoropiperidin-4-yl)methoxy]pyridin-3-yl}-3-methyl-5-{[5-(trifluoromethyl)pyrazin-2-yl]amino}-1,2-thiazole-4-carboxamide] | 460 | > 20000
4 | Cc1nsc(Nc2cnc(C(F)(F)F)cn2)c1C(=O)Nc1ccc(F)c(OC[C@H]2CCN(CC(F)F)C2)c1 [Example 397, N-(3-{[(3S)-1-(2,2-difluoroethyl)pyrrolidin-3-yl]methoxy}-4-fluorophenyl)-3-methyl-5-{[5-(trifluoromethyl)pyrazin-2-yl]amino}-1,2-thiazole-4-carboxamide] | 830 | > 20000
5 | Cc1nsc(Nc2cnc(C(F)(F)F)cn2)c1C(=O)Nc1ccc(F)c(OC[C@H]2CCN(CC(F)(F)F)C2)c1 [Example 398, N-(4-fluoro-3-{[(3S)-1-(2,2,2-trifluoroethyl)pyrrolidin-3-yl]methoxy}phenyl)-3-methyl-5-{[5-(trifluoromethyl)pyrazin-2-yl]amino}-1,2-thiazole-4-carboxamide] | 490 | > 20000
6 | Cc1nsc(Nc2cnc(C(F)(F)F)cn2)c1C(=O)Nc1ccc(F)c(OC[C@H]2CCN(CCC(F)(F)F)C2)c1 [Example 399, N-(4-fluoro-3-{[(3S)-1-(3,3,3-trifluoropropyl)pyrrolidin-3-yl]methoxy}phenyl)-3-methyl-5-{[5-(trifluoromethyl)pyrazin-2-yl]amino}-1,2-thiazole-4-carboxamide] | 650 | > 20000

Source: US20170334899A1, “AMINO-SUBSTITUTED ISOTHIAZOLES” (Bayer Pharma Aktiengesellschaft, priority 2014, published 2017)
